From US20020142982A1, “Method for regulating angiogenesis” (priority 1999, published 2002) come the findings set out here.

Holding throughout (format): cell-based, human
The subject of assay [1] is HUVEC. The assay is described as follows: Adherens junction assembly in HUVEC, immunofluorescence of VE-cadherin and catenins. The note with it: for VE-cadherin, α-, β- and γ-catenin localization at cell-cell junctions: 500 nM, 1 hour. As to the method: To investigate whether SPP regulates the formation of adherens junction in endothelial cells, HUVEC were plated at a density of 2×10^4 cells/em^2 for 2 days, starved in lipid-depleted medium and treated without (cont) or with SPP (500 nM for 1 hours). For these experiments, after treatment cells were washed with ice-cold PBS, fixed with 4% formaldehyde at room temperature or methanol at −20° C. for 15 minutes. In the case of formaldehyde fixation, cells were permeabilized with 0.2% TX-100. After washing with PBS, cells were stained with antibodies as follows: VE-cadherin ([…], Transduction Labs, San Diego, Calif.; 1 μg/mL, Santa Cruz Biotechnology, Inc., Santa Cruz, Calif.), α-catenin ([…], Transduction Labs), β-catenin (1.25 μg/mL, Transduction Labs; 0.4 μg/mL, Santa Cruz), γ-catenin ([…], Transduction Labs). The primary antibody staining was visualized with FITC-conjugated goat anti-rabbit or TRITC conjugated sheep anti-mouse (1:1000, Cappel, now owned by ICN, Costa Mesa, Calif.) for 30 minutes at room temperature, and imaged on a Zeiss Axiovert 100TV fluorescence microscope. […]

In assay [2] the test system is HUVEC. As to the kind of experiment: HUVEC morphogenesis on MATRIGEL (in vitro angiogenesis, tubular length). The settings on record: for HUVEC morphogenesis on MATRIGEL (tubular length): 12-18 hours, SPM and C1P 1 μM. The protocol:
FIG. 42 is microscope images showing morphogenesis of HUVEC cells plated on Matrigel. HUVEC cells were transduced with 50 MOI of indicated viruses; a,b=none, c=β-gal, d=wild-type EDG-1, e=T236AEDG-1, f=T236AEDG-1+wild-type Akt. Total viral load in c-f is normalized. In vitro angiogenesis assay on Matrigel was conducted in the presence (b to f) or not (a) of 100 nM S1P. The numbers are mean±s.e.m of total tubular length per microscopic field (n=2). Scale bar=170 μm.
To investigate SPP induction of angiogenesis, 200 μL aliquots of thawed MATRIGEL were polymerized in 24-well tissue culture plates. HUVEC were trypsinized, resuspended in plain M199 medium containing soybean trypsin inhibitor (10 mg/mL, Sigma Chemical Co., St. Louis, Mo.). Following centrifugation (250 g; 5 minutes), cells were resuspended in plain M199 supplemented with 2% CFBS at a density of 1.5×10^5 cells/mL. 200 μL of cell suspension were seeded on these gels in the presence or absence of SPP (Biomol), for 12-18 hours. Cells were rinsed two times with phosphate buffered saline (PBS), and then fixed with 4% formaldehyde. Results were recorded photographically using a Zeiss Axiovert 100TV microscope equipped with a 5× objective. Five random fields of each well were photographed, and total tubular length was quantified by image analysis (Kinsella, J. et al., Experimental Cell Research 199: 56-62 (1992); Gamble J., et al., J. Cell Biol. 121: 931-943 (1993)).
Scale bar represents 52 microns. These quantitative data are the mean±standard deviation of duplicate determinations from a representative experiment which was repeated at least three times. SPP concentrations (in μM) are indicated in parentheses. For SPP +PTx, HUVEC were pretreated with PTx (200 ng/mL) for 2 hours, trypsinized, plated onto MATRIGEL, then stimulated with 500 nM SPP in the presence of PTx (20 ng/mL) for 16-18 hours. For SPP+C3, HUVEC were pretreated with C3 exoenzyme (10 μg/mL) for 48 hours, trypsinized, plated onto MATRIGEL, stimulated with 500 nM SPP together with the same concentration of C3 exotoxin. SPM, sphingomyelin (1 μM). For C1P, C8-ceramide-1-phosphate (1 μM). The maximal effects achieved by 1 μM SPP was indistinguishable from the positive control medium which contained FBS.
In these experiments, HUVEC were plated onto MATRIGEL in the presence of the same amount of corresponding antibodies without or with 500 nM SPP. 16 hours later, total length of HUVEC networks formed on MATRIGEL was quantified.

In assay [3] the test system is HUVEC. As to the kind of experiment: C2-Ceramide-induced apoptosis of HUVEC (DNA fragmentation). The note with it: pretreatment 2 hours; PD98059 10 μM. As to the method:
The ability of SPP to protect endothelial cells from apoptosis was investigated. In these experiments, HUVEC were treated with 1 μM C2-Ceramide for 12 hours and apoptosis was measured in the following manner: HUVEC were plated onto coverslips and allowed to grow for 2 days. Cells were washed three times with medium M199, and treated with 1 μM C2-Ceramide (Biomol) for 12 hours in the presence or absence of SPP. Subsequently, cells were fixed with methanol at −20° C. for 5 minutes, air dried, and stained with Hoechst 33258 dye (0.5 μg/mL for 5 minutes; Sigma Chemical Co., St. Louis, Mo.). The apoptotic nuclei were identified with the aid of a Zeiss Axiovert 100TB fluorescence microscope. For quantification, HUVEC were labeled with ^3Hmethyl-thymidine (5 μCi/mL, NEN DuPont) for 24 hours. Following three washes with medium M199, cells were treated with C2-Ceramide as above. 12 hours later, cells were extracted with lysis buffer (5 mM tris, pH 7.4, 2 mM EDTA, 0.5% TX-100) at 4° C. for 20 minutes. After centrifugation (15,000 g, 20 minutes), the radioactivity present in the supernatant and sediment was measured by liquid scintillation counting. The percentage of DNA fragmentation was determined as ((supernatant cpm)/(supernatant cpm+sediment cpm))×100%.
SPP+PTx and SPP+PD98059 (10 μM), respectively, for 2 hours prior to the addition of C2-Ceramide (1 μM) and SPP (10 to 500 nM). Data are mean±standard deviation of triplicate determinations from a representative experiment which was repeated two times. […] A similar effect was also seen when growth factor withdrawal, and 15-deoxy Δ^12,14 prostaglandin J2 were used as apoptotic stimuli (data not shown). […] Therefore SPP induced endothelial cell survival requires the Gi/ERK signaling pathway.

Another assay deals with ERK-2. The assay is described as follows: ERK-2 immune complex kinase assay in HUVEC. The note with it: PTx 200 ng/mL or PD98059 10 μM, 2 hours pretreatment. The protocol:
As a second functional assay, ERK-2 kinase activity was measured in response to SPP treatment. For these experiments, endothelial cells were starved for 19 hours, and then stimulated with SPP for 10 minutes. Cells were then lysed, and ERK-2 kinase activity was measured by an immune complex kinase assay using myelin basic protein (MBP) as substrate. Some cells were pretreated with pertussis toxin (PTx) at 200 ng/mL, or PD98059 at 10 μM for 2 hours prior to stimulation.

The test system of assay [4] is HUVEC. As to the kind of experiment: SPP-induced intracellular calcium in HUVEC (Indo-1 fluorescence). The settings on record: PTx 500 ng/mL pretreatment 16 hours. The protocol: Functional assays were used to test for the presence of Gi-coupled and Gq-coupled SPP receptors in HUVEC. First, intracellular calcium levels were measured in response to SPP. For these experiments, cells were grown on 100-mm tissue culture dishes and loaded with the fluorescent calcium-sensitive dye, Indo-1 acetoxymethyl ester (Indo-1/AM, 5 μg/mL; Molecular Probes, Inc., Eugene, Oreg.), for 30 min at 37° C. Cells were then washed with medium M199, briefly trypsinized (0.05% porcine trypsin/0.02% EDTA in HBSS (JRH Biosciences, Lenexa, Kans.), and the trypsin activity was immediately neutralized with soybean trypsin inhibitor (5 μg/mL, Sigma Chemical Co., St. Louis, Mo.). Following centrifugation (250 g×5 min), cells were resuspended in M199 medium to a density of 2.7×10^5 cells/mL. Cells were then stimulated with different doses of SPP. Some cells were pretreated with the Gi inhibitor pertussis toxin (PTx, 500 ng-/mL) for 16 hours. Calcium ion concentration was then quantified by measuring changes in indo-1 fluorescence in 2 mL of cell suspension by a Hitachi F-2000 fluorescence Spectrophotometer with constant stirring. Fluorescence emission was monitored at 400 and 475 nm with excitation at 352 nm. [Ca^+2]1 was calculated as described in Volpi and Berlin, J. Cell Biol., Vol. 107, 2533-39 (1988).

For the compound `CCCCCCCCCCCCC/C=C/[C@@H](O)[C@@H](N)CO` [sphingosine], the “VE-cadherin, α-, β- and γ-catenin localization at cell-cell junctions” value (“VE-cadherin … at cell-cell junctions” below) in the assay with HUVEC [1] was “had no effect”.
Regarding `CCCCCCCCCCCCC/C=C/[C@@H](O)[C@H](COP(=O)(O)O)NC(=O)CCCCCCC` [ceramide-1-phosphate, C8-ceramide-1-phosphate], the “VE-cadherin … at cell-cell junctions” value with HUVEC [1] is “had no effect”. The “HUVEC morphogenesis on MATRIGEL (tubular length)” value in the assay on HUVEC [2] was “inactive”.
As for pertussis toxin, the “inhibition of SPP-induced β-catenin translocation” value in the assay with HUVEC [1] (HUVEC, SPP treatment) is given as “did not inhibit”. The “inhibition of SPP-induced morphogenesis” value in the assay with HUVEC [2] (500 nM SPP, MATRIGEL) is “potently inhibited”. In addition, the “inhibition of the cytoprotective effect of SPP” value in the assay with HUVEC [3] was “completely inhibited”. The “inhibition of SPP-induced ERK activity” value with ERK-2 was “inhibited completely”. The “inhibition of SPP-induced calcium response” value in the assay with HUVEC [4] is reported as “approximately 90%”.
Consider `COc1cccc(-c2cc(=O)c3ccccc3o2)c1N` [PD98059], for which the “inhibition of the cytoprotective effect of SPP” value in the assay with HUVEC [3] is “completely inhibited”. Besides, in the assay on ERK-2, the “inhibition of SPP-induced ERK activity” value was “inhibited completely”.
Take sphingomyelin: the “VE-cadherin … at cell-cell junctions” value with HUVEC [1] is “had no effect”. Moreover, the “HUVEC morphogenesis on MATRIGEL (tubular length)” value in the assay on HUVEC [2] is “inactive”.
Take ceramide: in the assay on HUVEC [1], the “VE-cadherin … at cell-cell junctions” value is “had no effect”.
